# According to PubChem BioAssay (NCI):
#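 Abbreviation: GI50, concentration required for 50% inhibition of growth. TGI: concentration producing complete growth inhibition.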
# Columns and labels:
# Assay in all cases: NCI anticancer screen, dose series, 384-well format
# [1] = test system: OVCAR-5 ovarian
# [2] = test system: A498 renal
# [3] = test system: IGROV1 ovarian
# [4] = test system: RPMI-8226 leukemia
# [5] = test system: MCF7 breast
# [6] = test system: SF-295 CNS
# [7] = test system: LOX IMVI melanoma
# [8] = test system: HOP-62 NSCLC
# [9] = test system: SF-268 CNS
# [10] = test system: UACC-62 melanoma
# [11] = test system: OVCAR-8 ovarian
# [12] = test system: SF-539 CNS
# [13] = test system: NCI-H522 lung
# [14] = test system: MOLT-4 leukemia
# [15] = test system: OVCAR-4 ovarian
# [16] = test system: ACHN renal
# [17] = test system: CCRF-CEM leukemia
# [18] = test system: SK-MEL-5 melanoma
# [19] = test system: PC-3 prostate
# [20] = test system: T-47D breast
# [21] = test system: SNB-75 CNS
# [22] = test system: HT29 colon
# [23] = test system: UACC-257 melanoma
# [24] = test system: A549 NSCLC
# [25] = test system: CAKI-1 renal
# [26] = test system: SN12C renal
# [27] = test system: HS 578T breast
# [28] = test system: KM12 colon
# [29] = test system: DU-145 prostate
# [30] = test system: UO-31 renal
# [31] = test system: SNB-19 CNS
# [32] = test system: 786-0 renal
# [33] = test system: MDA-MB-435 melanoma
# [34] = test system: HOP-92 NSCLC
# [35] = test system: M14 melanoma
# [36] = test system: OVCAR-3 ovarian
# [37] = test system: MDA-MB-231 breast
# [38] = test system: RXF 393 renal
# [39] = test system: TK-10 renal
# [40] = test system: K-562 leukemia
# [41] = test system: BT-549 breast
# [42] = test system: NCI-H226 lung
# [43] = test system: HCT-116 colon
# [44] = test system: MALME-3M melanoma
# [45] = test system: SW-620 colon
# [46] = test system: U251 glioblastoma
# [47] = test system: SK-OV-3 ovarian
# [48] = test system: MDA-MB-468 breast
# [49] = test system: NCI-H322M lung
# [50] = test system: HCC-2998 colon
# [51] = test system: EKVX NSCLC
# [52] = test system: HL-60(TB) leukemia
# [53] = test system: COLO 205 colon
# [54] = test system: NCI-H460 NSCLC
# [55] = test system: HCT-15 colon
# [56] = test system: NCI/ADR-RES ovarian
# [57] = test system: NCI-H23 lung
# [58] = test system: SK-MEL-28 melanoma
structure (smiles),measurement,setting,value
COc1c(Nc2ncc(Cl)c(N[C@@H]3[C@H]4C=CC(C4)[C@@H]3C(N)=O)n2)ccc2c1CC[C@@H](N1CCOCC1)CC2,GI50,[1],1.35 µM
same,TGI,[1],4.58 µM
same,GI50,[2],1.95 µM
same,TGI,[2],10.6 µM
same,GI50,[3],1.4 µM
same,TGI,[3],9.59 µM
same,GI50,[4],1.21 µM
same,TGI,[4],3 µM
same,GI50,[5],1.75 µM
same,TGI,[5],11.9 µM
same,GI50,[6],1.95 µM
same,TGI,[6],10.3 µM
same,GI50,[7],1.33 µM
same,TGI,[7],2.68 µM
same,GI50,[8],1.7 µM
same,TGI,[8],5.36 µM
same,GI50,[9],0.206 µM
same,TGI,[9],2.5 µM
same,GI50,[10],0.688 µM
same,TGI,[10],2.92 µM
same,GI50,[11],2.7 µM
same,TGI,[11],9.48 µM
same,GI50,[12],1.25 µM
same,TGI,[12],2.57 µM
same,GI50,[13],1.44 µM
same,TGI,[13],3.7 µM
same,GI50,[14],0.311 µM
same,TGI,[14],1.43 µM
same,GI50,[15],7.05 µM
same,TGI,[15],19.6 µM
same,GI50,[16],2.16 µM
same,TGI,[16],9.25 µM
same,GI50,[17],1.51 µM
same,TGI,[17],3.03 µM
same,GI50,[18],1.37 µM
same,TGI,[18],6.79 µM
same,GI50,[19],2.27 µM
same,TGI,[19],8.98 µM
same,GI50,[20],1.94 µM
same,TGI,[20],5.31 µM
same,GI50,[21],1.29 µM
same,TGI,[21],2.77 µM
same,GI50,[22],1.24 µM
same,TGI,[22],2.58 µM
same,GI50,[23],1.51 µM
same,TGI,[23],3.53 µM
same,GI50,[24],1.27 µM
same,TGI,[24],5.57 µM
same,GI50,[25],1.35 µM
same,TGI,[25],2.78 µM
same,GI50,[26],1.19 µM
same,TGI,[26],5.33 µM
same,GI50,[27],1.56 µM
same,TGI,[27],2.97 µM
same,GI50,[28],1.68 µM
same,TGI,[28],10.4 µM
same,GI50,[29],2.88 µM
same,TGI,[29],12.3 µM
same,GI50,[30],1.56 µM
same,TGI,[30],4.9 µM
same,GI50,[31],5.1 µM
same,TGI,[31],17.4 µM
same,GI50,[32],1.48 µM
same,TGI,[32],2.94 µM
same,GI50,[33],1.7 µM
same,TGI,[33],8.33 µM
same,GI50,[34],1.3 µM
same,TGI,[34],3.26 µM
same,GI50,[35],0.817 µM
same,TGI,[35],2.57 µM
same,GI50,[36],3.11 µM
same,TGI,[36],11.8 µM
same,GI50,[37],1.54 µM
same,TGI,[37],6.14 µM
same,GI50,[38],1.58 µM
same,TGI,[38],3.17 µM
same,GI50,[39],2.29 µM
same,TGI,[39],7.86 µM
same,GI50,[40],1.78 µM
same,TGI,[40],3.68 µM
same,GI50,[41],1.62 µM
same,TGI,[41],3.16 µM
same,GI50,[42],0.676 µM
same,TGI,[42],4.67 µM
same,GI50,[43],1.27 µM
same,TGI,[43],2.62 µM
same,GI50,[44],0.866 µM
same,TGI,[44],2.66 µM
same,GI50,[45],1.66 µM
same,TGI,[45],3.25 µM
same,GI50,[46],1.76 µM
same,TGI,[46],6.5 µM
same,GI50,[47],1.78 µM
same,TGI,[47],7.55 µM
same,GI50,[48],1.28 µM
same,TGI,[48],2.99 µM
same,GI50,[49],2.75 µM
same,TGI,[49],11.5 µM
same,GI50,[50],1.24 µM
same,TGI,[50],3.09 µM
same,GI50,[51],1.5 µM
same,TGI,[51],4.53 µM
same,GI50,[52],1.55 µM
same,TGI,[52],3.01 µM
same,GI50,[53],1.11 µM
same,TGI,[53],2.69 µM
same,GI50,[54],1.96 µM
same,TGI,[54],5.26 µM
same,GI50,[55],2.15 µM
same,TGI,[55],10.1 µM
same,GI50,[56],1.97 µM
same,TGI,[56],4.66 µM
same,GI50,[57],1.68 µM
same,TGI,[57],5.94 µM
same,GI50,[58],1.54 µM
same,TGI,[58],5.22 µM
